The values below are quoted from earlier work in PMC2660605 (Biochemistry, 2008).

The test system of series [1] is HIV-1 with IN mutation E92Q.
The test system of series [2] is HIV-1 with IN mutation T66I.
The target in series [3] is HIV-1 integrase E92Q (Human immunodeficiency virus type 1 group M subtype B, UniProt P12497, E1239Q). As to conditions: E92Q mutant.

With `COc1cc2c(cc1Cc1cccc(Cl)c1F)c(=O)c(C(=O)O)cn2[C@H](CO)C(C)C` [Elvitegravir, elvitegravir], the reduced susceptibility was 36 fold in series [1] and 37 fold in series [2]. The resistance level in series [3] is recorded as 4.3 fold.
